From patent publication US11655297B2, “ILDR2 antagonists and combinations thereof” (Bayer Aktiengesellschaft, priority 2017, dated 2023)

Legend:
[1] = tested on: B16-F10 OVA tumor model; experiment: B16-F10 OVA model, combination with Docetaxel; conditions: for tumor size of the treatment group vs. Control (T/C): B16-F10 OVA, BAY 1905254 10 mg/kg i.p. q3d×3, Docetaxel once 20 mg/kg i.v.; for Mean tumor size: BAY 1905254 10 mg/kg i.p. q3d×3 starting day 8, Docetaxel once 20 mg/kg i.v. on day 8
Protocol: Eight weeks old female C57B1/6N Cr1 BR mice (body weight 18-20 g) from Charles River Deutschland, Sulzfeld were used for the B16-F10 OVA tumor model. The model is a derivative of the B16F10 cell line expressing the allo-antigen ovalbumin which can be recognized by antigen-specific T cells. The experiment was initiated after an acclimatization period of 5 days. Animals were kept in a 12-hour light/dark cycle. Food and water was available ad libitum. Housing temperature was maintained at 21° C. Mice (n=12 per group) were s.c. inoculated with 1×10^4 B16F10 OVA tumor cells into the left flank and assigned to experimental groups. At treatment initiation, animals were marked and each cage was labeled with the cage number, study number and the number of animals per cage.
Agents were dosed i.p. at 10 mg/kg q3d×3, starting day 8.

[2] = tested on: B16F10 tumor model; experiment: B16-F10 preventive treatment, syngeneic tumor model; type: in vivo, mouse; conditions: for Mean tumor size: 10 mg/kg i.p. q3d×6 from tumor inoculation
Excerpt: (§1) The following syngeneic tumor models were subcutaneously used in in vivo experiments: B16-F10 cells represent a mouse melanoma cell line derived from the skin of C57BL/6J mice. CT26 is an N-nitroso-N-methylurethane-(NNMU) induced, undifferentiated colon carcinoma cell line. It is a fibroblast cell type and derives from BALB/c mice. 3C9-D11-H11 cells are hybridoma B lymphocytes generated by fusion of spleen cells with Sp2/0-Ag14 myeloma cells. The spleen cells derive from BALB/c mice that were immunized with purified porcine parvovirus (PPV).

[3] = tested on: B16F10 syngeneic mouse model; experiment: Tumor shrinking activity in B16F10 syngeneic mouse model (FIG. 9A); type: in vivo
Protocol: Tumor shrinking activity is measured as decrease of tumor volume, relative to an isotype control.
To determine the anti-tumor efficacy, such as for example, the tumor shrinking effect of the respective binders, two syngeneic mouse models (B16F10, CT26) were used as discussed above.

[4] = tested on: CT26 C4.4a tumor model; experiment: CT26 C4.4a model, combination with C4.4A ADC; type: in vivo, mouse; conditions: for Mean tumor size: BAY 1905254 10 mg/kg i.p. q3d×5, C4.4A ADC 10 mg/kg i.v. q4d×3, starting day 6
Protocol: This model is a derivative of the parental CT26 model expressing murine C4.4a on the surface of the tumor cells.
C4.4A ADC (antibody-drug conjugate BAY1129980), which is composed of an antibody against a structural homolog of the urokinase-type plasminogen activator receptor (uPAR) and tumor-associated antigen, C4.4a, and conjugated with a cytotoxic agent, was dosed 10 mg/kg i.v. q4d×3, starting day 6.

[5] = tested on: 3C9-D11-H11 tumor model; experiment: 3C9-D11-H11 therapeutic, combination with aPD-L1; type: in vivo, mouse
Excerpt: as §1

[6] = tested on: CT26 tumor model; experiment: CT26 therapeutic, combination with aPD-L1; type: in vivo, mouse; conditions: aPD-L1 10 mg/kg
Excerpt: as §1

[7] = tested on: B16F10 OVA tumor model; experiment: B16F10 OVA model, combination with OVA vaccine and CpG oligo; type: in vivo, mouse; conditions: for Mean tumor size: BAY 1905254 10 mg/kg i.p. q3d×3 starting day 8, 50 μg OVA + 10 μg CPG s.c. on day 9
Protocol: 50 μg OVA (in 50 μl)+10 μg CPG (in 10 μl)+140 μl PBS=200 μl/mouse was applied subcutaneously to the left flank adjacent to the tumor, on day 9. The CpG oligonucleotide was ODN 1826 (5′-[…]-3′; bases are phosphorothioate/nuclease resistant) that is specific for mouse TLR9 was used (Invivogen MA-1826-5).

[8] = tested on: CT26 syngeneic mouse model; experiment: Tumor shrinking activity in CT26 syngeneic mouse model (FIG. 9C)
Protocol: FIG. 9C: Tumor shrinking activity of selected anti ILDR2 antibodies according to the present invention in a CT26 syngeneic mouse model. Tumor shrinking activity is measured as decrease of tumor volume, relative to an Isotype control.

[9] = tested on: B16-F10 tumor model; experiment: B16-F10 therapeutic treatment, combination with aPD-L1; type: in vivo, mouse
Excerpt: as §1

[10] = tested on: IL-2 secretion of CD4 T cells co-cultured with M-CSF mature monocytes; experiment: Mixed lymphocyte reaction (MLR), antibody-evoked IL-2 secretion by Elisa; type: cell-based
Protocol: To determine the effect of these antibodies on ILDR2 function an immunomodulation assay was carried out, namely a mixed lymphocyte reaction assay. The mixed lymphocyte reaction (MLR) is a test in which populations of lymphocytes are mixed together, and the resulting reactions are measured. Technically, it is an ex-vivo cellular immune assay that occurs between two allogeneic lymphocyte populations. In a one-way MLR, only one lymphocyte population can respond or proliferate. In a two-way MLR, both populations can proliferate. MLR's are performed to assess how T cells react to external stimuli, e.g., exposure to immune checkpoint inhibitors, like anti PD-1 antibodies (Wang et al 2014) and anti-PD-L1 antibodies. In the present context, antibody-evoked IL-2 secretion was measured with this assay.
In the present case, CD4 T cells from one donor were co-cultured with M-CSF mature monocytes from another donor in the presence of various ILDR2 antibodies, a function-blocking PD-L1 antibody or an isotype control for 5 days. […] Results are shown in FIG. 9B and the following table 3.

Compound: CC(=O)O[C@@]12CO[C@@H]1C[C@H](O)[C@@]1(C)C(=O)[C@H](O)C3=C(C)[C@@H](OC(=O)[C@H](O)[C@@H](NC(=O)OC(C)(C)C)c4ccccc4)C[C@@](O)([C@@H](OC(=O)c4ccccc4)[C@H]21)C3(C)C [Docetaxel, reference compound]
- tumor size of the treatment group vs. Control (T/C) [1]: 0.74
- Mean tumor size ([1]; day 8 post inoculation): 86.56 mm3
- Mean tumor size ([1]; day 11 post inoculation): 100.78 mm3
- Mean tumor size ([1]; day 14 post inoculation): 165.78 mm3
- Mean tumor size ([1]; day 16 post inoculation): 305.33 mm3

Compound: BAY1905254: anti ILDR2 antibody, heavy chain SEQ ID NO:42, light chain SEQ ID NO:43
- tumor size of the treatment group vs. isotype control (T/C) ([2]; B16-F10 preventive, 10 mg/kg i.p. q3d×6): 0.63
- tumor growth vs. isotype control (in words) ([2]; B16F10, 10 mg/kg i.p., start of treatment d0, 2 way ANOVA): significantly delayed
- Mean tumor size ([2]; day 3 post inoculation): 34.5 mm3
- Mean tumor size ([2]; day 6 post inoculation): 77.3 mm3
- Mean tumor size ([2]; day 8 post inoculation): 90.1 mm3
- Mean tumor size ([2]; day 11 post inoculation): 286.8 mm3
- Mean tumor size ([2]; day 13 post inoculation): 389.2 mm3
- Mean tumor size ([2]; day 15 post inoculation): 1059.9 mm3
- Mean tumor size ([2]; day 17 post inoculation): 1204 mm3
- tumor shrinkage measured against an isotype control (in words) [3]: do
- tumor size of the treatment group vs. Control (T/C) ([4]; CT26 C4.4a, BAY 1905254 10 mg/kg i.p. q3d×5, C4.4A ADC 10 mg/kg i.v. q4d×3): 1.13
- tumor growth vs. isotype control (in words) ([4]; FIG. 8, BAY1905254 10 mg/kg i.p., C4.4A ADC 10 mg/kg i.v., from d6, 2 way ANOVA): does not lead to a delay in tumor growth
- Mean tumor size ([4]; day 6 post inoculation): 56.89 mm3
- Mean tumor size ([4]; day 10 post inoculation): 141.28 mm3
- Mean tumor size ([4]; day 12 post inoculation): 220.99 mm3
- Mean tumor size ([4]; day 14 post inoculation): 260.95 mm3
- Mean tumor size ([4]; day 17 post inoculation): 566.58 mm3
- Mean tumor size ([4]; day 19 post inoculation): 706.01 mm3
- tumor size of the treatment group vs. isotype control (T/C) ([5]; 3C9-D11-H11, 10 mg/kg i.p. q3d×5 starting d8): 0.87
- tumor growth vs. isotype control (in words) ([5]; 3C9-D11-H11, 10 mg/kg q3d i.p. from d8, 2 way ANOVA): not the case
- Mean tumor size ([5]; day 7 post inoculation, 10 mg/kg i.p. q3d×5 starting d8): 63.28 mm3
- Mean tumor size ([5]; day 10 post inoculation, 10 mg/kg i.p. q3d×5 starting d8): 67.18 mm3
- Mean tumor size ([5]; day 14 post inoculation, 10 mg/kg i.p. q3d×5 starting d8): 198.87 mm3
- Mean tumor size ([5]; day 16 post inoculation, 10 mg/kg i.p. q3d×5 starting d8): 314.06 mm3
- Mean tumor size ([5]; day 18 post inoculation, 10 mg/kg i.p. q3d×5 starting d8): 574.54 mm3
- Mean tumor size ([5]; day 21 post inoculation, 10 mg/kg i.p. q3d×5 starting d8): 1377.9 mm3
- tumor size of the treatment group vs. isotype control (T/C) ([6]; CT26, BAY1905254 3 mg/kg i.p. q3d×3 starting d7): 0.95
- tumor growth vs. isotype control (in words) ([6]; CT26, BAY1905254 3 mg/kg q3d i.p. from d7, 2 way ANOVA): no delay of tumor growth
- Mean tumor size ([6]; day 7 post inoculation, BAY1905254 3 mg/kg i.p. q3d×3 starting d7): 136.38 mm3
- Mean tumor size ([6]; day 10 post inoculation, BAY1905254 3 mg/kg i.p. q3d×3 starting d7): 227.41 mm3
- Mean tumor size ([6]; day 13 post inoculation, BAY1905254 3 mg/kg i.p. q3d×3 starting d7): 367.22 mm3
- Mean tumor size ([6]; day 15 post inoculation, BAY1905254 3 mg/kg i.p. q3d×3 starting d7): 576.28 mm3
- tumor size of the treatment group vs. Control (T/C) ([7]; B16F10 OVA, BAY 1905254 10 mg/kg i.p. q3d×3, OVA + CPG s.c. once): 0.66
- tumor growth vs. isotype control (in words) ([7]; B16F10 OVA, BAY1905254 10 mg/kg q3d i.p., OVA and CPG, 2 way ANOVA): moderate delay of tumor growth
- Mean tumor size ([7]; day 9 post inoculation): 66.09 mm3
- Mean tumor size ([7]; day 11 post inoculation): 137.52 mm3
- Mean tumor size ([7]; day 14 post inoculation): 314.75 mm3
- Mean tumor size ([7]; day 16 post inoculation): 483.38 mm3
- Mean tumor size ([7]; day 18 post inoculation): 711.93 mm3
- anti-tumor activity in an in vivo tumor model compared with anti PD-L1 antibody (in words) [8]: comparable to that of an anti PD-L1 antibody
- tumor size of the treatment group vs. Control (T/C) [1]: 0.86
- tumor growth vs. isotype control (in words) ([1]; B16F10 OVA, BAY1905254 10 mg/kg q3d i.p., Docetaxel 20 mg/kg i.v. once, 2 way ANOVA): moderate delay of tumor growth
- Mean tumor size ([1]; day 8 post inoculation): 86.26 mm3
- Mean tumor size ([1]; day 11 post inoculation): 97.06 mm3
- Mean tumor size ([1]; day 14 post inoculation): 207.75 mm3
- Mean tumor size ([1]; day 16 post inoculation): 382.66 mm3
- tumor growth vs. isotype control (in words) ([9]; B16-F10 therapeutic, 10 mg/kg q3d i.p., 2 way ANOVA): No monotherapy efficacy
- tumor size of the treatment group vs. isotype control (T/C) ([9]; B16-F10 therapeutic, 10 mg/kg i.p. q3d×5 starting d3): 1.08
- Mean tumor size ([9]; day 6 post inoculation, 10 mg/kg i.p. q3d×5 starting d3): 76.07 mm3
- Mean tumor size ([9]; day 8 post inoculation, 10 mg/kg i.p. q3d×5 starting d3): 80.52 mm3
- Mean tumor size ([9]; day 10 post inoculation, 10 mg/kg i.p. q3d×5 starting d3): 158.01 mm3
- Mean tumor size ([9]; day 13 post inoculation, 10 mg/kg i.p. q3d×5 starting d3): 479.92 mm3
- Mean tumor size ([9]; day 15 post inoculation, 10 mg/kg i.p. q3d×5 starting d3): 986.99 mm3
- IL2 concentration (% over isotype control) ([10]; MLR, 5 days, supernatant Elisa): 91 +/− 11%
- IL-2 secretion / cytokine induction in MLR (in words) ([10]; vs isotype control or anti PD-L1 antibody): do not mediate IL-2 induction
